# Test results as given in ChEMBL document CHEMBL6074689 (Eur J Med Chem, 2025).
# Activity calls are given as the source filed them. The calls are words filed in the database; no cut-off is given here.
# Columns and labels:
# Acetylcholinesterase [1] = biological target: T1, Acetylcholinesterase (Homo sapiens, UniProt P22303); assay: Displacement of propidium iodide from human AChE PAS assessed as reduction in fluorescence intensity at 0.01 uM incubated for 6 hrs by fluorescence based analysis relative to control; design: scale not given: the % may be the effect or the level left
# T1 sequence (P22303 whole entry): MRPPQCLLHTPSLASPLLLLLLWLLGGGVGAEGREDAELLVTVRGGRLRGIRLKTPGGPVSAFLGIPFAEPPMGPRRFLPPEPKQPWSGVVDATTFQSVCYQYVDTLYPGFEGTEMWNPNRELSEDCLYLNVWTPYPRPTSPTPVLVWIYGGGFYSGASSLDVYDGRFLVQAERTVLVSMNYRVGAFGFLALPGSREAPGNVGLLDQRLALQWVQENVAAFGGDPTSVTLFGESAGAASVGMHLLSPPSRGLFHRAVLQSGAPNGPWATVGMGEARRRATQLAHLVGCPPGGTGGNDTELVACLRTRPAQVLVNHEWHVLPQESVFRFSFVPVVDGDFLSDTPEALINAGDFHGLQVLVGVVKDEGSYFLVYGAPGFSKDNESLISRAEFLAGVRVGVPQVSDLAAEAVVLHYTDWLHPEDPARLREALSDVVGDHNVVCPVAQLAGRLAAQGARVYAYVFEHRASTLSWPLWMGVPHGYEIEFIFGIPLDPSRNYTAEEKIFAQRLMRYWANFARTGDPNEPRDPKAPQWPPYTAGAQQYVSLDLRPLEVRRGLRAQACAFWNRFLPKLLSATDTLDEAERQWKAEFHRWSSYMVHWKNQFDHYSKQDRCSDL
# PC-12 [2] = assay: Neuroprotective activity against H2O2-induced oxidative stress in rat PC-12 cells assessed as cell viability at 1 to 20 uM preincubated with compound for 24 hrs and followed by H2O2 induction and measured after 24 hrs by MTT assay; type: functional, cell-based; details: dose 1-20 µM, time 48.0 hrs
# Drosophila melanogaster [3] = assay: Anti-alzheimer activity in ey-GAL4 driven UAS-amyloid beta (1 to 42) induced Drosophila melanogaster Oregon R-positive assessed as rescued eye phenotype at 10 uM by Stereo zoom microscopic imaging analysis relative to control; type: functional
# Mus musculus [4] = assay: Antioxidant activity against scopolamine-induced Swiss albino mouse model assessed as increase in SOD level at 0.3 to 0.5 mg/kg, po by absorbance based analysis; type: functional, organism-based; details: dose 0.3-0.5 mg/kg
# Mus musculus [5] = assay: Antialzheimer activity in scopolamine-induced Swiss albino mouse model assessed as improvement in memory retention by measuring time spent in platform quadrant at 0.3 to 0.5 mg/kg, po preincubated with compound for 30 mins followed by scopolamine induction and measured after 5 days by Morris water maze test; type: functional, organism-based; details: dose 0.3-0.5 mg/kg, time 7230.0 min
# Acetylcholinesterase [6] = biological target: T1, Acetylcholinesterase; assay: Displacement of propidium iodide from human AChE PAS assessed as reduction in fluorescence intensity at 1 uM incubated for 6 hrs by fluorescence based analysis relative to control; design: scale not given: the % may be the effect or the level left
# Mus musculus [7] = assay: Antialzheimer activity in scopolamine-induced Swiss albino mouse model assessed as reduction in AChE level at 0.3 to 0.5 mg/kg, po preincubated with compound for 30 mins followed by scopolamine induction and measured after 30 mins; type: functional, organism-based; details: dose 0.3-0.5 mg/kg, time 1.0 hrs
# PC-12 [8] = assay: Induction of apoptosis in rat PC-12 cells assessed as viable cells at 2.5 uM incubated for 24 hrs by Annexin V/PI staining based flow cytometry analysis (reference value: 82.8%); type: functional; details: read-out: Activity
# Mus musculus [9] = assay: Neuroprotective activity against scopolamine-induced Swiss albino mouse model assessed as upregulation of PKA mRNA level at 0.3 to 0.5 mg/kg, po measured after 6 days by RT-PCR analysis; type: functional, organism-based; details: dose 0.3-0.5 mg/kg, time 6.0 day
# Drosophila melanogaster [10] = assay: Anti-alzheimer activity in ey-GAL4 driven UAS-amyloid beta (1 to 42) induced Drosophila melanogaster Oregon R-positive assessed as mild eye phenotype at 10 uM by Stereo zoom microscopic imaging analysis relative to control; type: functional
# Mus musculus [11] = assay: Antioxidant activity against scopolamine-induced Swiss albino mouse model assessed as increase in MDA level at 0.3 to 0.5 mg/kg, po by absorbance based analysis; type: functional, organism-based; details: dose 0.3-0.5 mg/kg
# Drosophila melanogaster [12] = assay: Anti-alzheimer activity in ey-GAL4 driven UAS-amyloid beta (1 to 42) induced Drosophila melanogaster Oregon R-positive assessed as severe eye phenotype at 100 uM by Stereo zoom microscopic imaging analysis relative to control; type: functional
# Mus musculus [13] = assay: Neuroprotective activity against scopolamine-induced Swiss albino mouse model assessed as increase in CREB1 mRNA level at 0.3 to 0.5 mg/kg, po measured after 6 days by RT-PCR analysis; type: functional, organism-based; details: dose 0.3-0.5 mg/kg, time 6.0 day
# PC-12 [14] = assay: Cytotoxicity against rat PC-12 cells assessed as cell viability upto 20 uM measured for 24 hrs by MTT assay; type: toxicity, cell-based; details: pc-12, 24 h
# Mus musculus [15] = assay: Antioxidant activity against scopolamine-induced Swiss albino mouse model assessed as increase in catalase level in brain at 0.3 to 0.5 mg/kg, po by absorbance based analysis; type: functional, organism-based; details: dose 0.3-0.5 mg/kg
# Mus musculus [16] = assay: Neuroprotective activity against scopolamine-induced Swiss albino mouse model assessed as increase in NR4A2 mRNA level at 0.3 to 0.5 mg/kg, po measured after 6 days by RT-PCR analysis; type: functional, organism-based; details: dose 0.3-0.5 mg/kg, time 6.0 day
# [17] = Permeability of the compound across blood brain barrier; type: ADME; details: read-out: BBB
# Mus musculus [18] = assay: Neuroprotective activity against scopolamine-induced Swiss albino mouse model assessed as increase in C-FOS mRNA level at 0.3 to 0.5 mg/kg, po measured after 6 days by RT-PCR analysis; type: functional, organism-based; details: dose 0.3-0.5 mg/kg, time 6.0 day
# Drosophila melanogaster [19] = assay: Anti-alzheimer activity in ey-GAL4 driven UAS-amyloid beta (1 to 42) induced Drosophila melanogaster Oregon R-positive assessed as rescued eye phenotype at 50 uM by Stereo zoom microscopic imaging analysis relative to control; type: functional
# [20] = Acute toxicity in Swiss albino mouse assessed as tremor at 175 mg/kg, po administered for 14 days; type: organism-based; details: in vivo, 336 h, time 14 day
# Drosophila melanogaster [21] = assay: Anti-alzheimer activity in ey-GAL4 driven UAS-amyloid beta (1 to 42) induced Drosophila melanogaster Oregon R-positive assessed as rescued eye phenotype at 40 uM by Stereo zoom microscopic imaging analysis relative to control; type: functional
# Acetylcholinesterase [22] = biological target: T1, Acetylcholinesterase; assay: Reversible binding affinity to human AChE using acetylthiocholine iodide as substrate assessed as equilibrium binding constant preincubated for 40 mins by DTNB reagent based Ellman's method
# Mus musculus [23] = assay: Antialzheimer activity in scopolamine-induced Swiss albino mouse model assessed as decrease in escape latency at 0.3 to 0.5 mg/kg, po preincubated with compound for 30 mins followed by scopolamine induction and measured after 5 days by Morris water maze test; type: functional, organism-based; details: dose 0.3-0.5 mg/kg, time 7230.0 min
smiles,measurement,setting,value
C[C@@H](c1cccc(OC(=O)NCCc2c[nH]c3ccc(Cl)cc23)c1)N(C)C,Activity,Acetylcholinesterase [1],1.37%
same,Activity,PC-12 [2],Active
same,Activity,Drosophila melanogaster [3],43%
same,Activity,Mus musculus [4],Active
same,Activity,Mus musculus [5],Active
same,Activity,Acetylcholinesterase [6],20.4%
same,Activity,Mus musculus [7],Active
same,viability at 2.5 µM,PC-12 [8],72.2%
same,Activity,Mus musculus [9],Active
same,Activity,Drosophila melanogaster [10],36%
same,Activity,Mus musculus [11],Active
same,Activity,Drosophila melanogaster [12],26%
same,Activity,Mus musculus [13],Active
same,Activity,PC-12 [14],Non-toxic
same,Activity,Mus musculus [15],Active
same,Activity,Mus musculus [16],Active
same,Papp,[17],13 ×10⁻⁶ cm/s
same,Activity,Mus musculus [18],Active
same,Activity,Drosophila melanogaster [19],23%
same,Activity,[20],Non-toxic
same,Activity,Drosophila melanogaster [21],40%
same,Kb,Acetylcholinesterase [22],0.196 nM
same,Activity,Mus musculus [23],Active
